Experimental data reported in patent publication US7192981B2, “3,4-dihydroxyhydrocinnamic acid derivative” (Bionutrigen Co., Ltd., priority 2005, dated 2007).

Key:
IR-β = molecular target: T1, IR-β (Rattus norvegicus, UniProt P15127); experiment: Phosphorylation of IR-β in adipocytes, immunoprecipitation and western blot; assay type: cell-based; settings: SD rat adipocytes, DHH105 2 h, vs untreated control
T1 construct: DHH105-treated adipocytes from SD rats; endogenous in cells; host or cells: adipocytes from SD rats
Description: Adipocytes treated with DHH105 for 2 h or insulin for 10 min were homogenized in 5 ml lysis buffer (20 mM Tris, pH 7.4, 1% SDS, 10% glycerol, 150 mM NaCl, 2 mM EDTA, 20 mM NaF, 1 mM NaVO4, 2 mM sodium pyrophosphate, protease inhibitor cocktail, and phosphatase inhibitor cocktail) with a teflon pestle (15 strokes). Homogenized adipocytes were sonicated for 3 min and solubilized for 30 min. The homogenate was centrifuged at 3,000 g for 10 min at 4° C. The protein concentration of the lysate was determined by the Bradford method. After dilution (1 μg/μl protein concentration), the lysates were incubated with anti-insulin receptor-β (IR-β) antibody (Upstate Biotech, Charlottesville, Va.) or anti-IRS-1 antibody (Upstate Biotech) overnight at 4° C. Protein A Sepharose beads (100 μl, Amersham Pharmacia Biotech) were added and the mixture was gently rocked for 2 h at 4° C. […] The membranes were washed and the immunoreactive proteins were detected with an enhanced chemoluminescence western blot detection kit (Amersham Pharmacia Biotech). To examine whether DHH105 treatment increases autophosphorylation of the insulin receptor and its tyrosine kinase activity, the phosphorylation of IR-β and IRS-1 were measured by immunoprecipitation and western blot in DHH105-treated adipocytes from SD rats. […]

GLUT4 = GLUT4 translocation, subcellular fractionation and western blot; assay type: cell-based, rat; settings: 500 μM, 4 h, vs untreated control adipocytes
Description: Adipocytes treated with DHH105 for 4 h or insulin for 30 min were washed three times with HES buffer [8 mM HEPES, 250 mM sucrose, 2 mM EDTA, 20 mM NaF, 50 mM NaVO4, 50 mM sodium pyrophosphate, protease inhibitor cocktail (Sigma), and phosphatase inhibitor cocktail (Sigma), pH 7.4]. Adipocytes were homogenized in 20 ml HES buffer with a potter Elvehjem teflon pestle (15 strokes). Homogenates were centrifuged at 1000 g for 10 min and the supernatant was centrifuged again at 16,000 g for 20 min. The resulting pellet was resuspended in 500 μl HES buffer, carefully laid on a discontinuous sucrose gradient (density top to bottom: 1.0592, 1.1270, 1.1533, 1.1764, 1.2575) and centrifuged at 110,000 g for 70 min. The plasma membrane fraction was obtained from the gradient density of 1.1533, diluted in 50 ml HES buffer, and centrifuged at 16,000 g for 20 min. The pellet (plasma membrane fraction) was resuspended in 500 μl HES buffer and stored at −70° C. To obtain the microsomal membrane fraction, the supernatant from the second centrifugation was centrifuged at 220,000 g for 70 min. The pellet was washed, resuspended in 500 μl HES buffer and stored at −70° C. The protein content of each fraction was measured by the Bradford method. […] The membranes were washed and the immunoreactive proteins were detected with an enhanced chemoluminescence western blot detection kit (Amersham Pharmacia Biotech).

[1] = system: STZ-induced diabetic C57BL/6 mice; experiment: Blood glucose and glucose tolerance test in STZ-induced diabetic mice; assay type: in vivo, mouse; settings: 150 mg/kg i.p. daily, at 2 weeks after treatment
Text: Male C57BL/6 and C57BL/6 ob/ob mice were purchased from The Jackson Laboratory (Bar Harbor, Me.), and Sprague-Dawley (SD) rats were purchased from Charles River Laboratories (Wilmington, Mass.). The animals were maintained and bred under specific pathogen-free conditions and provided with sterile food and water ad libitum at the Animal Resources Centre, Faculty of Medicine, University of Calgary. The use and care of the animals used in this study were approved by the Animal Care Committee, Faculty of Medicine, University of Calgary.
DHH105 was dissolved in DMSO and emulsified in olive oil (1:50 v/v). DHH105, at a dose of 150 mg/kg body weight (b.w.) in 100 μl, was injected intraperitoneally (i.p.) every day into diabetic ob/ob mice (blood glucose level>230 mg/dl) and STZ-treated diabetic C57BL/6 mice (blood glucose level>300 mg/dl). Control mice received the same amount of olive oil without DHH105. Blood glucose levels were measured with a glucometer (One Touch Ultra, Lifescan, Milpitas, Calif.) every morning between 9:00–10:00 a.m. just before injection of DHH105.
To determine whether treatment with DHH105 can decrease the blood glucose level in STZ-induced diabetic C57BL/6 mice (blood glucose levels>300 mg/dl), mice were treated with DHH105 (150 mg/kd) daily for 2 weeks. […] Blood glucose levels were measured at 0, 15, 30, 60, and 120 min after glucose injection.

T1 sequence (P15127 764-1383 limits assumed): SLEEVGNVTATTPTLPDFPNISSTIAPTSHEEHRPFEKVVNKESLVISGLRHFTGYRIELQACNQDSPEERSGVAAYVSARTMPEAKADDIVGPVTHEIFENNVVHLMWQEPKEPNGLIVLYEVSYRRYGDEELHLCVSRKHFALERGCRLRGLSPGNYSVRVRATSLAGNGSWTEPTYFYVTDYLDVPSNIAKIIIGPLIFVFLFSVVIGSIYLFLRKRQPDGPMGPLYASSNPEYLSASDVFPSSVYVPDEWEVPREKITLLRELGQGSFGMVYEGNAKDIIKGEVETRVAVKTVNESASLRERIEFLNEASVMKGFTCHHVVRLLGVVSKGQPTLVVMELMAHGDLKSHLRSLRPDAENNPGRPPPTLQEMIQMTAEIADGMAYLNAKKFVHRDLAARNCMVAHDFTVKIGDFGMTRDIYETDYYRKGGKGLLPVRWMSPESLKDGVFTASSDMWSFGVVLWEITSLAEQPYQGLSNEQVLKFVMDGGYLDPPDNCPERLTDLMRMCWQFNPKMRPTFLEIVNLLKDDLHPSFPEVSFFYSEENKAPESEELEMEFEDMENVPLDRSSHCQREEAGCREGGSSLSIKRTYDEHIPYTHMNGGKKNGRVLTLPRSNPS
T1 sequence (P15127 27-759 limits assumed): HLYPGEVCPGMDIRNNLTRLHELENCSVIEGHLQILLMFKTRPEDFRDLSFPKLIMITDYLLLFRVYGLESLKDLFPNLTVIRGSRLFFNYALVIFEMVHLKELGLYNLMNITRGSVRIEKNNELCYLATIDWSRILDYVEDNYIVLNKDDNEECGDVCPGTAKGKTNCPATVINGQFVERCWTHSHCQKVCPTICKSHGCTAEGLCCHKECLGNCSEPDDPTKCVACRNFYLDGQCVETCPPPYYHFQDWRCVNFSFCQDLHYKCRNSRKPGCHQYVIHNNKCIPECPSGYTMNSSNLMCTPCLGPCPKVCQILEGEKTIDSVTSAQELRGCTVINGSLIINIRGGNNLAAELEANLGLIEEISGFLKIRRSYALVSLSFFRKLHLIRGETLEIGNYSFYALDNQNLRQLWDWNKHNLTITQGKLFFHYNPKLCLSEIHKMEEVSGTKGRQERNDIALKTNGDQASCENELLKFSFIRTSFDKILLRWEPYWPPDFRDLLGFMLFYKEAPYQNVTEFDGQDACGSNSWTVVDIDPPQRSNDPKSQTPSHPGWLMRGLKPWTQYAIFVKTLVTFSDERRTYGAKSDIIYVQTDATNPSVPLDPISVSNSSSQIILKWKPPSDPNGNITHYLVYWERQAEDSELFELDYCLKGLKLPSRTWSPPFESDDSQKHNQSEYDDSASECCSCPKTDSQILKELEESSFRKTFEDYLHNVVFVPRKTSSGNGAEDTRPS

For O=C(CCc1ccc(O)c(O)c1)OCc1cccc2ccccc12 [DHH105, 3,4-dihydroxyhydrocinnamic acid naphthalene methyl ester], the “phosphorylation of IR-β” value (IR-β) was “increased”, the “amount of GLUT4 in the microsomal membrane fraction” value (GLUT4) was “decreased” and the “immunoreactive GLUT4 in the plasma membrane fraction” value (GLUT4) was “increased”. For the same compound, the blood glucose levels [1] was “significantly decreased”.
